From ChEMBL document CHEMBL5338744, “Development and Characterization of Benzoselenazole Derivatives as Potent and Selective c-MYC Transcription Inhibitors” (J Med Chem, 2023)
Active and inactive are the calls of the source. The rule behind the calls is not given here.

What was measured:
HepG2 [1] = assay: Cytotoxicity against human HepG2 cells assessed as reduction in cell viability incubated for 48 hrs by MTT assay; type: functional, cell-based; conditions: HepG2, 48 h
HCT-116 = assay: Cytotoxicity against human HCT-116 cells assessed as reduction in cell viability incubated for 48 hrs by MTT assay; type: functional, cell-based; conditions: HCT-116, 48 h
[2] = Cytotoxicity against human NCM460 cells assessed as reduction in cell viability incubated for 48 hrs by MTT assay; type: toxicity, cell-based
Quadruplex DNA [3] = assay: Binding affinity to G-quadruplex DNA pu22 (unknown origin) by fluorescence spectroscopic analysis; type: nucleic-acid assay
[4] = Toxicity in BALB/C-nu/nu mouse xenografted with human HepG2 cells assessed as abnormality in lung at 15 mg/kg, ip administered every other day for 28 days by hematoxylin and eosin staining method; type: organism-based; conditions: in vivo, 672 h, time 28 day
[5] = Toxicity in BALB/C-nu/nu mouse xenografted with human HepG2 cells assessed as abnormality in spleen at 15 mg/kg, ip administered every other day for 28 days by hematoxylin and eosin staining method; type: organism-based; conditions: in vivo, 672 h, time 28 day
[6] = Disruption of NM23-H2/c-MYC G quadruplex DNA (unknown origin) interaction incubated for 1 hr by ELISA
Quadruplex DNA [7] = assay: Binding affinity to G-quadruplex DNA htg22 (unknown origin) by fluorescence spectroscopic analysis; type: nucleic-acid assay
[8] = Toxicity in BALB/C-nu/nu mouse xenografted with human HepG2 cells assessed as sign of pain at 15 mg/kg, ip administered every other day for 28 days; type: organism-based; conditions: in vivo, 672 h, time 28 day
[9] = Toxicity in BALB/C-nu/nu mouse xenografted with human HepG2 cells assessed as changes in body weight at 15 mg/kg, ip administered every other day for 28 days; type: organism-based; conditions: in vivo, 672 h, time 28 day
HepG2 [10] = assay: Effect on cell cycle distribution in human HepG2 cells assessed as accumulation of cells in S phase at 1.25 to 5 uM incubated for 48 hrs by PI staining based flow cytometric analysis; type: functional; conditions: dose 1.25-5 µM
HepG2 [11] = assay: Antitumor activity against human HepG2 cells xenografted in BALB/C-nu/nu mouse assessed as tumor growth inhibition at 15 mg/kg, ip administered every other day for 28 days; type: functional; conditions: HepG2, 672 h, time 28 day, read-out: TGI
Quadruplex DNA [12] = assay: Binding affinity to G-quadruplex DNA VEGF (unknown origin) by fluorescence spectroscopic analysis; type: nucleic-acid assay
[13] = Toxicity in BALB/C-nu/nu mouse xenografted with human HepG2 cells assessed as sign of discomfort at 15 mg/kg, ip administered every other day for 28 days; type: organism-based; conditions: in vivo, 672 h, time 28 day
CA46 = assay: Inhibition of c-MYC G-quadruplex exon 1 transcription in human CA46 cells incubated for 48 hrs by RT-qPCR analysis; type: functional, cell-based; conditions: dose 1.25-2.5 µM
[14] = Toxicity in nude mouse assessed as mortality at 30 mg/kg administered for 5 days; type: organism-based; conditions: in vivo, 120 h, time 5 day
[15] = Toxicity in BALB/C-nu/nu mouse xenografted with human HepG2 cells assessed as sign of distress at 15 mg/kg, ip administered every other day for 28 days; type: organism-based; conditions: in vivo, 672 h, time 28 day
HepG2 [16] = assay: Inhibition of colony formation in human HepG2 cells at 1 uM measured after 14 days by crystal violet staining based assay; type: functional, cell-based; conditions: time 14.0 day
[17] = Cytotoxicity against human L02 cells assessed as reduction in cell viability incubated for 48 hrs by MTT assay; type: toxicity, cell-based
Quadruplex DNA [18] = assay: Binding affinity to G-quadruplex DNA c-kit1 (unknown origin) by fluorescence spectroscopic analysis; type: nucleic-acid assay
Quadruplex DNA [19] = assay: Binding affinity to G-quadruplex DNA pu22 mutant (unknown origin) by fluorescence spectroscopic analysis; type: nucleic-acid assay
HepG2 [20] = assay: Antitumor activity against human HepG2 cells xenografted in BALB/C-nu/nu mouse assessed as decrease in c-MYC expression in tumor tissue at 15 mg/kg, ip administered every other day for 28 days by immunohistochemical analysis; type: functional, organism-based; conditions: time 28.0 day
[21] = Toxicity in BALB/C-nu/nu mouse xenografted with human HepG2 cells assessed as abnormality in kidney at 15 mg/kg, ip administered every other day for 28 days by hematoxylin and eosin staining method; type: organism-based; conditions: in vivo, 672 h, time 28 day
Quadruplex DNA [22] = assay: Binding affinity to G-quadruplex DNA ds26 (unknown origin) by fluorescence spectroscopic analysis; type: nucleic-acid assay
HepG2 [23] = assay: Downregulation of c-MYC expression level in human HepG2 cells incubated for 48 hrs by Western blotting analysis; type: functional, cell-based; conditions: dose 0-10 µM
[24] = Toxicity in BALB/C-nu/nu mouse xenografted with human HepG2 cells assessed as abnormality in liver at 15 mg/kg, ip administered every other day for 28 days by hematoxylin and eosin staining method; type: organism-based; conditions: in vivo, 672 h, time 28 day
HepG2 [25] = assay: Induction of apoptosis in human hepG2 cells assessed as early apoptotic cells at 1.25 to 5 uM incubated for 48 hrs by Annexin V-FITC and propidium iodide staining based flow cytometric analysis; type: functional; conditions: dose 1.25-5 µM
HepG2 [26] = assay: Antitumor activity against human HepG2 cells xenografted in BALB/C-nu/nu mouse assessed as reduction in tumor volume at 15 mg/kg, ip administered every other day for 28 days; type: functional, organism-based; conditions: time 28.0 day
Quadruplex DNA [27] = assay: Binding affinity to G-quadruplex DNA pu22 (unknown origin) assessed as melting temperature at 10 uM by circular dichroism analysis
HepG2 [28] = assay: Inhibition of c-MYC transcription in human HepG2 cells up to 10 uM incubated for 48 hrs by RT-qPCR analysis; type: functional, cell-based
[29] = Toxicity in BALB/C-nu/nu mouse xenografted with human HepG2 cells assessed as abnormality in heart at 15 mg/kg, ip administered every other day for 28 days by hematoxylin and eosin staining method; type: organism-based; conditions: in vivo, 672 h, time 28 day
HepG2 [30] = assay: Antitumor activity against human HepG2 cells xenografted in BALB/C-nu/nu mouse assessed as reduction in tumor weight at 15 mg/kg, ip administered every other day for 28 days; type: functional, organism-based; conditions: time 28.0 day
[31] = Toxicity in nude mouse assessed as changes in body weight at 30 mg/kg administered for 5 days; type: organism-based; conditions: in vivo, 120 h, time 5 day
HepG2 [32] = assay: Disruption of NM23-H2/c-MYC G quadruplex DNA interaction in human HepG2 cells at 1.25 uM incubated for 1 hr by ChIP assay; type: cell-based
Quadruplex DNA [33] = assay: Binding affinity to G-quadruplex DNA HRAS (unknown origin) by fluorescence spectroscopic analysis; type: nucleic-acid assay

With CN(C)CCCn1c2ccccc2c2cc(/C=C/c3nc4ccccc4[se]3)ccc21 the IC50 (HepG2 [1]) was over 100 µM, the IC50 (HCT-116) was 34.4 µM and the IC50 at 48 h [2] was over 100 µM.
CCn1c2ccccc2c2cc(/C=C/c3nc4c(ccc5ccccc54)[se]3)ccc21 gave an IC50 (HepG2 [1]) of over 100 µM, an IC50 (HCT-116) of over 100 µM and an IC50 at 48 h [2] of over 100 µM.
Work on CCn1c2ccccc2c2cc(/C=C/c3nc4ccccc4s3)ccc21 yielded an IC50 (HepG2 [1]) of 52.1 µM, an IC50 (HCT-116) of over 100 µM and an IC50 at 48 h [2] of over 100 µM.
Work on CN(C)CCCn1c2ccccc2c2cc(/C=C/c3sc4ccccc4[n+]3C)ccc21 yielded an IC50 (HepG2 [1]) of 11.3 µM, an IC50 (HCT-116) of 14.7 µM and an IC50 at 48 h [2] of 30.2 µM.
CCn1c2ccccc2c2cc(/C=C/c3nc4c(ccc5ccccc54)o3)ccc21 gave an IC50 (HepG2 [1]) of over 100 µM, an IC50 (HCT-116) of over 100 µM and an IC50 at 48 h [2] of over 100 µM.
Compound CCn1c2ccccc2c2cc(/C=C/c3[se]c4ccc5ccccc5c4[n+]3C)ccc21 has an IC50 (HepG2 [1]) of 4.5 µM, an IC50 (HCT-116) of 9 µM and an IC50 at 48 h [2] of 42.5 µM.
C[n+]1c(/C=C/c2ccc3c(c2)c2ccccc2n3Cc2ccccc2)sc2ccccc21 gave an IC50 (HepG2 [1]) of 7.4 µM, an IC50 (HCT-116) of 4.1 µM and an IC50 at 48 h [2] of 45.6 µM.
In the case of CCn1c2ccccc2c2cc(/C=C/c3oc4ccccc4[n+]3C)ccc21, the IC50 (HepG2 [1]) is reported as 43.3 µM, the IC50 (HCT-116) is reported as 46.7 µM and the IC50 at 48 h [2] is reported as over 100 µM.
With CCn1c2ccccc2c2cc(/C=C/c3oc4ccc5ccccc5c4[n+]3C)ccc21 the IC50 (HepG2 [1]) was 93.3 µM, the IC50 (HCT-116) was 26.3 µM and the IC50 at 48 h [2] was over 100 µM.
C(=C\c1nc2ccccc2o1)/c1ccc2c(c1)c1ccccc1n2Cc1ccccc1 gave an IC50 (HepG2 [1]) of 5.7 µM, an IC50 (HCT-116) of 25.9 µM and an IC50 at 48 h [2] of over 100 µM.
For C[n+]1c(/C=C/c2ccc3c(c2)c2ccccc2n3Cc2ccccc2)[se]c2ccccc21.[I-], the IC50 (HepG2 [1]) was 3.5 µM, the Kd (Quadruplex DNA [3]) was 0.9 µM and the IC50 (HCT-116) was 4.1 µM. The Activity [4] was “Non-Toxic”, the Activity [5] was “Non-Toxic” and the IC50 [6] was 9.8 µM. The Kd (Quadruplex DNA [7]) was over 20 µM, the Activity [8] was “Non-Toxic” and the Activity [9] was “Non-Toxic”. The Activity (HepG2 [10]) was 14.6%, the inhibition in vivo at 15 mg/kg (HepG2 [11]) was 65.8% and the Kd (Quadruplex DNA [12]) was 17.9 µM. For the same compound, the Activity [13] was “Non-Toxic”, the inhibition (CA46) was “Dose-Dependent Effect” and the Activity [14] was “Toxic”. The Activity [15] was “Non-Toxic”, the inhibition (HepG2 [16]) was “Active” and the IC50 at 48 h [17] was over 100 µM. For the same compound, the IC50 at 48 h [2] was 77.6 µM, the Kd (Quadruplex DNA [18]) was 9.6 µM and the Kd (Quadruplex DNA [19]) was over 20 µM. The Activity (HepG2 [20]) was “Active”, the Activity [21] was “Non-Toxic” and the Kd (Quadruplex DNA [22]) was over 20 µM. For the same compound, the Activity (HepG2 [23]) was “Dose-Dependent Effect”, the Activity [24] was “Non-Toxic” and the Activity (HepG2 [25]) was 1.7%. The Activity (HepG2 [26]) was “Active”, the Tm (Quadruplex DNA [27]) was 78.3 °C and the inhibition (HepG2 [28]) was “Active”. The Activity [29] was “Non-Toxic”, the Activity (HepG2 [30]) was “Active” and the Activity [31] was “Toxic”. The Activity (HepG2 [32]) was “Active” and the Kd (Quadruplex DNA [33]) was over 20 µM.
Compound CN(C)CCCn1c2ccccc2c2cc(/C=C/c3[se]c4ccccc4[n+]3C)ccc21 has an IC50 (HepG2 [1]) of 26.2 µM, an IC50 (HCT-116) of 15 µM and an IC50 at 48 h [2] of 87.7 µM.
